Data from patent US12065654B2, “Plants having increased tolerance to herbicides” (BASF SE, priority 2014, dated 2024).

Tests used:
[1] = system: untransformed control soybean plants (Jake); test: Herbicide field trial; format: in vivo, Glycine max; conditions: 7 DAT with 50 g/ha, post-emergence V2-V3, 1% v/v MSO; preliminary assessment, FIG. 7
Procedure: (§1) Transgenic plants expressing heterologous HPPD or HST enzymes are tested for tolerance against HPPD-inhibiting herbicides in field experiments.
(§2) A study can be conducted at a field trial location to evaluate the effect of HPPD herbicides on the phenotypic and phenologic characteristics of a soybean variety containing different transgenes.
(§3) The trial is designed as a randomized complete block with a split-plot treatment design. The trial contains mainplots defined by ‘herbicide treatment’ (combination of herbicide and application rate). The herbicide treatments are applied post-emergence at the V2-V3 plant growth stage. […]
(§4) Each plot consists of a single row 1.2 m long and adjacent plots are spaced 0.76 m apart. […] The zygosity of each plant of transgenic event is determined prior to the application of the herbicide treatment.
(§5) The effect of the HPPD herbicide treatments on phenotypic and phenologic characteristics of plants representing each transgenic event and control variety, including tolerance to each herbicide treatment, is assessed during different vegetative and reproductive stages of plant growth.
(§6) An analysis of variance is conducted on data collected from each subplot and a Student's T test or Tukey's test is calculated where appropriate to compare means. […]

[2] = system: soybean plants expressing mutated Arabidopsis HPPD; test: Herbicide field trial; format: in vivo, Glycine max; conditions: 7 DAT with 50 g/ha, post-emergence V2-V3, 1% v/v MSO; preliminary assessment, FIG. 7
Procedure: as §1, §2, §3, §4, §5, §6

[3] = system: HPPD enzymes from different organisms; test: HPPD activity assay, summary statement; format: biochemical; conditions: all HPPD enzymes from different organisms of Table 12
Procedure: The activity assay for HPPD is based on the analysis of homogentisic acid by reversed phase HPLC.
The assay mixture can contain 150 mM potassium phosphate buffer pH 7.0, 50 mM L-ascorbic acid, 100 μM Catalase (Sigma-Aldrich), 1 μM FeSO4 and 0.2 units of purified HPPD enzyme in a total volume of 505 μl. 1 unit is defined as the amount of enzyme that is required to produce 1 nmol of HGA per minute at 20° C.
The reaction is allowed to proceed for 45 min at room temperature. The reaction is stopped by the addition of 50 μl of 4.5 M phosphoric acid. The sample is filtered using a […] pore size PVDF filtration device. 5 μl of the cleared sample is analyzed on an UPLC HSS T3 column (particle size 1.8 μm, dimensions 2, 1×50 mm; Waters) by isocratic elution using 90% 20 mM NaH2PO4 pH 2.2, 10% methanol (v/v).
HGA is detected electrochemically at 750 mV (mode: DC; polarity: positive) and quantified by integrating peak areas (Empower software; Waters).
Inhibitors are dissolved in DMSO (dimethylsulfoxide) to a concentration of 0.5 mM. From this stock solution serial five-fold dilutions are prepared in DMSO, which are used in the assay. The respective inhibitor solution accounts for 1% of the assay volume. Thus, final inhibitor concentrations range from 5 μM to 320 pM, respectively. […] IC50 values are calculated using non-linear regression. […]

[4] = system: Arabidopsis overexpression line Hordeum L320H, P321A; test: Germination assay in 48-well plates; format: in vivo, Arabidopsis thaliana; conditions: IC50 transgenic / wildtype, mean of 5 T2 events
Procedure: (§7) Depending on the species, the plants are kept at 10-25° C. or 20-35° C. The test period extends over 3 weeks. During this time, the plants are tended and their response to the individual treatments is evaluated. Herbicide injury evaluations are taken at 2 and 3 weeks after treatment. Plant injury is rated on a scale of 0 to 9, 0 being no injury and 9 being complete death. Tolerance to HPPD-inhibiting, preferably pyrazolone, isoxazole, or triketone derivative herbicides can also be assessed in Arabidopsis. In this case transgenic Arabidopsis thaliana plants are assayed for improved tolerance to HPPD-inhibiting, preferably pyrazolone, isoxazole, or triketone derivative herbicides in 48-well plates. Seeds are surface sterilized by stirring for 5 min in ethanol+water (70+30 by volume), rinsing one time with ethanol+water (70+30 by volume) and two times with a sterile, deionized water. The seeds are resuspended in 0.1% agar dissolved in water (w/v). Four to five seeds per well are plated on solid nutrient medium consisting of half-strength Murashige Skoog nutrient solution, pH 5.8 (Murashige and Skoog (1962) Physiologia Plantarum 15: 473-497). Compounds are dissolved in dimethylsulfoxid (DMSO) and added to the medium prior solidification (final DMSO concentration 0.1%). Multi well plates are incubated in a growth chamber at 22° C., 75% relative humidity and 110 μmol Phot*m−2*s−1 with 14:10 h light:dark photoperiod. Seven to ten days after seeding growth inhibition is evaluated by comparison to wild type plants. Tolerance factor is calculated by dividing the plant growth IC50 value of transgenic plants containing a HPPD and/or HST sequence by that of wildtype plants.

[5] = system: Arabidopsis overexpression line Hordeum L320Q; test: Germination assay in 48-well plates; format: in vivo, Arabidopsis thaliana; conditions: IC50 transgenic / wildtype, mean of 5 T2 events
Procedure: as §7

[6] = system: Arabidopsis overexpression line Picrophilus HPPD; test: Germination assay in 48-well plates; format: in vivo, Arabidopsis thaliana; conditions: IC50 transgenic / wildtype, mean of 5 T2 events
Procedure: as §7

[7] = system: Arabidopsis overexpression line Arabidopsis F381I; test: Germination assay in 48-well plates; format: in vivo, Arabidopsis thaliana; conditions: IC50 transgenic / wildtype, mean of 5 T2 events
Procedure: as §7

[8] = system: Arabidopsis overexpression line Rhodococcus HPPD2; test: Germination assay in 48-well plates; format: in vivo, Arabidopsis thaliana; conditions: IC50 transgenic / wildtype, mean of 5 T2 events
Procedure: as §7

[9] = system: Arabidopsis overexpression line Arabidopsis M335H, P336A, E363Q; test: Germination assay in 48-well plates; format: in vivo, Arabidopsis thaliana; conditions: IC50 transgenic / wildtype, mean of 5 T2 events
Procedure: as §7

[10] = system: Arabidopsis overexpression line Arabidopsis M335H; test: Germination assay in 48-well plates; format: in vivo, Arabidopsis thaliana; conditions: IC50 transgenic / wildtype, mean of 5 T2 events
Procedure: as §7

With `Cc1c(C(=O)c2cnn(C)c2O)ccc(S(C)(=O)=O)c1C1=NOCC1` [Inhibitor 1, [3-(4,5-dihydroisoxazol-3-yl)-2-methyl-4-methylsulfonyl-phenyl]-(5-hydroxy-1-methyl-pyrazol-4-yl)methanone] the “field injury (in words)” value [1] was “severe herbicide damage”, the “field injury (in words)” value [2] was “low-moderate injury” and the “fold more resistant in respect to the reference SEQ ID NO:53” value [3] was “at least 1.7 fold”. It also gave a Tolerance factor [4] of 300, a Tolerance factor [5] of 100 and a Tolerance factor [6] of 10. It also gave a Tolerance factor [7] of 90, a Tolerance factor [8] of 32 and a Tolerance factor [9] of 25. It also gave a Tolerance factor [10] of 10.
